Reference: patent US9271969B2, “Compounds as inhibitors of diacylglycerol O-acyltransferase type 1 enzyme” (KAINOS MEDICINE, INC., priority 2012, dated 2016)

How the values were obtained:
[1] = molecular target: T1, human DGAT1 (Homo sapiens (Human), UniProt O75907); assay: Radiometric DGAT1 assay, human liver microsomes; assay type: biochemical; conditions: Source of human DGAT activity B = human liver microsomes
Source text: (§1) A second source of DGAT1 activity was human or mouse liver microsomes.

[2] = molecular target: mouse DGAT1 (Mus musculus (Mouse), UniProt Q9Z2A7); assay: Radiometric DGAT1 assay, mouse liver microsomes; assay type: biochemical; conditions: mouse liver microsomes having mouse DGAT1 activity
Source text: as §1

[3] = molecular target: T1, human DGAT1; assay: biochemical
Experimental: For this assay, a source of DGAT1 was needed. In that regard, a commercially available plasmid for expression of DGAT1 (e.g., pCMV6-recombinant human DGAT1 plasmid) was transfected for 24 hours in Hep3B cells. After transfection of the plasmid, human DGAT-1 expression was analyzed by Western blot or RT-PCR using whole cell extracts. […] Human and mouse DGAT activity were determined as follows.
The plates were sealed, incubated overnight and counted the next morning on a liquid scintillation counter and luminometer.
DGAT1 catalyzes the transfer of the radiolabelled decanoyl group onto the sn-3 position of didecanoyl glycerol. The resultant radiolabeled tridecanoyl glycerol (tricaprin) preferentially binds to the hydrophobic coating on the phospholipid-coated radiometric assay plate. The proximity of the radiolabeled product to the solid scintillant incorporated into the bottom of the radiometric assay plate induced for release from the scintillant, which was measured in the liquid scintillation counter and luminometer.
IC50 values of the compounds were determined from concentration-dependent inhibition curves by using commercially available software.

mouse DGAT1, sequence (Q9Z2A7 whole entry): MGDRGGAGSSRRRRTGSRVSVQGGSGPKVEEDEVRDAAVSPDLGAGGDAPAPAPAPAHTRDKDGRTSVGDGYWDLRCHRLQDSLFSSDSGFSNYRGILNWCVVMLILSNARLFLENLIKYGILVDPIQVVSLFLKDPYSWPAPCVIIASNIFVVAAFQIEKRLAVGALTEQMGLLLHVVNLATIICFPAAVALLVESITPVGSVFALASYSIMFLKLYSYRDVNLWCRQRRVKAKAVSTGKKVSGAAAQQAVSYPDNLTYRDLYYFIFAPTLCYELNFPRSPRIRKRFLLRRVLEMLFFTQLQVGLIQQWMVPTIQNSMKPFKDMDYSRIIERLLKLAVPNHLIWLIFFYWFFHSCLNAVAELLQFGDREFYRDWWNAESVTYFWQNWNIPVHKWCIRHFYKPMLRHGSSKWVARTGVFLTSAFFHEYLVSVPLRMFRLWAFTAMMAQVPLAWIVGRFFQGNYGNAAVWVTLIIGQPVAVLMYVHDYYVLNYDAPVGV
T1 sequence (O75907 whole entry): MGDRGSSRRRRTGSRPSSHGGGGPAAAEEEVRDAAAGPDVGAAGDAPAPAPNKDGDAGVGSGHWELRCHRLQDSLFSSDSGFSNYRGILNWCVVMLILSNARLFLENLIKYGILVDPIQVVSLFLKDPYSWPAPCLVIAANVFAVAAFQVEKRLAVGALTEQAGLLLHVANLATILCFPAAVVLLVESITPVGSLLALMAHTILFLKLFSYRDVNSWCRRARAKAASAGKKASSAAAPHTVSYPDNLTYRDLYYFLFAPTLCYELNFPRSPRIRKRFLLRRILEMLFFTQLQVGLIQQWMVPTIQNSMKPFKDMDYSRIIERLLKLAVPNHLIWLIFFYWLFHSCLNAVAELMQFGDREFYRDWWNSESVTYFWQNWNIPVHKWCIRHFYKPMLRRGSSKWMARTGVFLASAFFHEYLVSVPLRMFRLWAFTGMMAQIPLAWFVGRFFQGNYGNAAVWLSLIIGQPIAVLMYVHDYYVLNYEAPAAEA

Compound | IC50 [1] | IC50 [2] | IC50 [3]
COc1ccc(CNC(=O)c2cn3cc(-c4ccc([C@H]5CC[C@H](CC(=O)O)CC5)cc4)ccc3n2)cc1OC [Compound 23, 2-((1r,4r)-4-(4-(2-((3,4-Dimethoxybenzyl)carbamoyl)imidazo[1,2-a]pyridin-6-yl)phenyl)-cyclohexyl)acetic acid] | < 25 nM | < 25 nM | –
O=C(O)C[C@H]1CC[C@H](c2ccc(-c3ccc4nc(C(=O)Nc5ccc(F)cc5C(F)(F)F)cn4c3)cc2)CC1 [Compound 33, 2-((1r,4r)-4-(4-(2-((4-Fluoro-2-(trifluoromethyl)phenyl)carbamoyl)imidazo[1,2-a]pyridin-6-yl)phenyl)cyclohexyl)acetic acid] | – | < 750 nM | < 250 nM
O=C(O)C[C@H]1CC[C@H](c2ccc(-c3ccc4nc(C(=O)Nc5ccc(C(F)(F)F)cc5)cn4c3)cc2)CC1 [Compound 2, 2-((1r,4r)-4-(4-(2-((4-(Trifluoromethyl)phenyl)carbamoyl)imidazo[1,2-a]pyridin-6-yl)phenyl)-cyclohexyl)acetic acid] | – | < 200 nM | < 10 nM
COc1ccccc1NC(=O)c1cn2cc(-c3ccc([C@H]4CC[C@H](CC(=O)O)CC4)cc3)ccc2n1 [Compound 36, 2-((1r,4r)-4-(4-(2-((2-Methoxyphenyl)carbamoyl)imidazo[1,2-a]pyridin-6-yl)phenyl)cyclohexyl)acetic acid] | – | < 75 nM | < 100 nM
O=C(O)C[C@H]1CC[C@H](c2ccc(-c3cn4cc(C(=O)Nc5cccc(OC(F)(F)F)c5)nc4s3)cc2)CC1 [Compound 52, 2-((1r,4r)-4-(4-(6-((3-(Trifluoromethoxy)phenyl)carbamoyl)imidazo[2,1-b]thiazol-2-yl)-phenyl)cyclohexyl)acetic acid] | < 10 nM | < 10 nM | –
O=C(O)C[C@H]1CC[C@H](c2ccc(-c3ccc4nc(C(=O)Nc5cccc(OC(F)(F)F)c5)cn4c3)cc2)CC1 [Compound 5, 2-((1r,4r)-4-(4-(2-((3-(Trifluoromethoxy)phenyl)carbamoyl)imidazo[1,2-a]pyridin-6-yl)-phenyl)cyclohexyl)acetic acid] | < 100 nM | < 125 nM | –
CC(C)c1ccc(CNC(=O)c2cn3cc(-c4ccc([C@H]5CC[C@H](CC(=O)O)CC5)cc4)ccc3n2)cc1 [Compound 19] | – | < 1 nM | < 10 nM
O=C(O)C[C@H]1CC[C@H](c2ccc(-c3ccc4nc(C(=O)Nc5ccccc5C(F)(F)F)cn4c3)cc2)CC1 [Compound 34, 2-((1r,4r)-4-(4-(2-((2-(Trifluoromethyl)phenyl)carbamoyl)imidazo[1,2-a]pyridin-6-yl)phenyl)cyclohexyl)acetic acid] | – | < 450 nM | < 150 nM
O=C(O)C[C@H]1CC[C@H](c2ccc(-c3cn4cc(C(=O)NCc5ccc(OC(F)(F)F)cc5)nc4s3)cc2)CC1 [Compound 56, 2-((1r,4r)-4-(4-(6-((4-(Trifluoromethoxy)benzyl)carbamoyl)imidazo[2,1-b]thiazol-2-yl)-phenyl)cyclohexyl)acetic acid] | < 10 nM | < 50 nM | –
COc1ccc(OC(F)(F)F)cc1CNC(=O)c1cn2cc(-c3ccc([C@H]4CC[C@H](CC(=O)O)CC4)cc3)sc2n1 [Compound 55, 2-((1r,4r)-4-(4-(6-((2-Methoxy-5-(trifluoromethoxy)benzyl)carbamoyl)imidazo[2,1-b]-thiazol-2-yl)phenyl)cyclohexyl)acetic acid] | < 10 nM | < 25 nM | –
CC(C)(C(=O)O)[C@H]1CC[C@H](c2ccc(-c3ccc4nc(C(=O)NCc5ccc(OC(F)(F)F)cc5)cn4c3)cc2)CC1 [Compound 66, 2-Methyl-2-((1r,4r)-4-(4-(2-((4-(trifluoromethoxy)benzyl)carbamoyl)imidazo[1,2-a]pyridin-6-yl)phenyl)cyclohexyl)propanoic acid] | < 10 nM | < 50 nM | –
O=C(O)C[C@H]1CC[C@H](c2ccc(-c3ccc4nc(C(=O)NCc5ccc(C(F)(F)F)cc5)cn4c3)cc2)CC1 [Compound 4, 2-((1r,4r)-4-(4-(2-((4-(Trifluoromethyl)benzyl)carbamoyl)imidazo[1,2-a]pyridin-6-yl)-phenyl)cyclohexyl)acetic acid] | < 150 nM | < 75 nM | –
O=C(O)C[C@H]1CC[C@H](c2ccc(-c3cn4cc(C(=O)NCc5cccc(OC(F)(F)F)c5)nc4s3)cc2)CC1 [Compound 50, 2-((1r,4r)-4-(4-(6-((3-(Trifluoromethoxy)benzyl)carbamoyl)imidazo[2,1-b]thiazol-2-yl)-phenyl)cyclohexyl)acetic acid] | < 50 nM | < 25 nM | –
CC(C)(C)c1ccc(CNC(=O)c2cn3cc(-c4ccc([C@H]5CC[C@H](CC(=O)O)CC5)cc4)sc3n2)cc1 [Compound 46, 2-((1r,4r)-4-(4-(6-((4-(tert-Butyl)benzyl)carbamoyl)imidazo[2,1-b]thiazol-2-yl)phenyl)-cyclohexyl)acetic acid] | < 1 nM | < 50 nM | –
Cc1cc(Cl)cc(Cl)c1CNC(=O)c1cn2cc(-c3ccc(C4CCC(CC(=O)O)CC4)cc3)ccc2n1 (centres unmarked) [Compound 43, 2-((1s,4s)-4-(4-(2-((2,4-Dichloro-6-methylbenzyl)carbamoyl)imidazo[1,2-a]pyridin-6-yl)phenyl)cyclohexyl)acetic acid] | < 10 nM | < 10 nM | –
O=C(O)C[C@H]1CC[C@H](c2ccc(-c3ccc4nc(C(=O)NCc5cccc(OC(F)(F)F)c5)cn4c3)cc2)CC1 [Compound 7, 2-((1r,4r)-4-(4-(2-((3-(Trifluoromethoxy)benzyl)carbamoyl)imidazo[1,2-a]pyridin-6-yl)-phenyl)cyclohexyl)acetic acid] | < 175 nM | < 100 nM | –
Cc1ccc(CNC(=O)c2nc3ccc(-c4ccc(C5CCC(CC(=O)O)CC5)cc4)cn3n2)cc1 (centres unmarked) [Compound 45, 2-((1s,4s)-4-(4-(2-((4-Methylbenzyl)carbamoyl)-[1,2,4]triazolo[1,5-a]pyridin-6-yl)phenyl)cyclohexyl)acetic acid] | < 50 nM | < 50 nM | –
O=C(O)C[C@H]1CC[C@H](c2ccc(-c3cn4cc(C(=O)NC5(c6cc(F)ccc6F)CC5)nc4s3)cc2)CC1 [Compound 54, 2-((1r,4r)-4-(4-(6-((1-(2,5-Difluorophenyl)cyclopropyl)carbamoyl)imidazo[2,1-b]thiazol-2-yl)phenyl)cyclohexyl)acetic acid] | < 10 nM | < 25 nM | –
Cc1cccc(Cl)c1CNC(=O)c1cn2cc(-c3ccc(C4CCC(C(C)(C)C(=O)O)CC4)cc3)ccc2n1 (centres unmarked) [Compound 67, 2-((1s,4s)-4-(4-(2-((2-Chloro-6-methylbenzyl)carbamoyl)imidazo[1,2-a]pyridin-6-yl)phenyl)cyclohexyl)-2-methylpropanoic acid] | < 25 nM | < 50 nM | –
COc1ccccc1CNC(=O)c1cn2cc(-c3ccc([C@H]4CC[C@H](CC(=O)O)CC4)cc3)ccc2n1 [Compound 41, 2-((1r,4r)-4-(4-(2-((2-Methoxybenzyl)carbamoyl)imidazo[1,2-a]pyridin-6-yl)phenyl)cyclohexyl)acetic acid] | < 25 nM | < 75 nM | –
CC(C)c1ccc(CNC(=O)c2cn3cc(-c4ccc([C@H]5CC[C@H](CC(=O)O)CC5)cc4)sc3n2)cc1 [Compound 53, 2-((1r,4r)-4-(4-(6-((4-Isopropylbenzyl)carbamoyl)imidazo[2,1-b]thiazol-2-yl)phenyl)cyclohexyl)acetic acid] | < 25 nM | < 100 nM | –
O=C(O)C[C@H]1CC[C@H](c2ccc(-c3ccc4nc(C(=O)Nc5cccc(C(F)(F)F)c5)cn4c3)cc2)CC1 [Compound 6, 2-((1r,4r)-4-(4-(2-((3-(Trifluoromethyl)phenyl)carbamoyl)imidazo[1,2-a]pyridin-6-yl)-phenyl)cyclohexyl)acetic acid] | < 75 nM | < 150 nM | –
O=C(O)C[C@H]1CC[C@H](c2ccc(-c3cn4cc(C(=O)NCc5cc(OC(F)(F)F)ccc5F)nc4s3)cc2)CC1 [Compound 51, 2-((1r,4r)-4-(4-(6-((2-Fluoro-5-(trifluoromethoxy)benzyl)carbamoyl)imidazo[2,1-b]thiazol-2-yl)phenyl)cyclohexyl)acetic acid] | < 50 nM | < 50 nM | –
CC(C)(C(=O)O)[C@H]1CC[C@H](c2ccc(-c3ccc4nc(C(=O)NCc5ccccc5)cn4c3)cc2)CC1 [Compound 65, 2-((1r,4r)-4-(4-(2-(Benzylcarbamoyl)imidazo[1,2-a]pyridin-6-yl)phenyl)cyclohexyl)-2-methylpropanoic acid] | < 10 nM | < 125 nM | –
O=C(O)CC1CCC(c2ccc(-c3ccc4nc(C(=O)NCc5c(F)cc(Cl)cc5F)cn4c3)cc2)CC1 (centres unmarked) [Compound 42, 2-((1s,4s)-4-(4-(2-((4-chloro-2,6-difluorobenzyl)carbamoyl)imidazo[1,2-a]pyridin-6-yl)phenyl)cyclohexyl)acetic acid] | < 10 nM | < 10 nM | –
O=C(O)C[C@H]1CC[C@H](c2ccc(-c3ccc4nc(C(=O)NCc5ccccc5)cn4c3)cc2)CC1 [Compound 31, 2-((1r,4r)-4-(4-(2-(Benzylcarbamoyl)imidazo[1,2-a]pyridin-6-yl)phenyl)cyclohexyl)acetic acid] | < 50 nM | < 100 nM | –
CC(C)(C)c1ccc(CNC(=O)c2cn3cc(-c4ccc([C@H]5CC[C@H](CC(=O)O)CC5)cc4)ccc3n2)cc1 [Compound 8, 2-((1r,4r)-4-(4-(2-((4-(tert-Butyl)benzyl)carbamoyl)imidazo[1,2-a]pyridin-6-yl)phenyl)-cyclohexyl)acetic acid] | < 125 nM | < 50 nM | –
Cc1cc(C)c(CNC(=O)c2cn3cc(-c4ccc(C5CCC(CC(=O)O)CC5)cc4)ccc3n2)c(C)c1 (centres unmarked) [Compound 44, 2-((1s,4s)-4-(4-(2-((2,4,6-Trimethylbenzyl)carbamoyl)imidazo[1,2-a]pyridin-6-yl)phenyl)cyclohexyl)acetic acid] | < 25 nM | < 10 nM | –
